Assay results from the supplement of paper PMC10307832.

What was measured:
Assay in all cases: relative viability (nuclei count vs DMSO), 5 days (fraction); higher = more cells survive
201T = system: 201T
Procedure, shortened: (§1)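 Lung cancer cell lines in 1536-well plates got either a single drug or a fixed anchor-drug dose together with five library-drug doses (not always all listed) in √10 steps, by pin tool, on the day after seeding. Nuclei were counted after 5 days, and relative viability is the treated-to-vehicle ratio of nuclei counts. Values are medians of duplicate plates.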

NCI-H1437 = system: NCI-H1437
Procedure, shortened: as §1

PC-3 [JPC-3] = system: PC-3 [JPC-3]
Procedure, shortened: as §1

HCC-78 = system: HCC-78
Procedure, shortened: as §1

NCI-H1734 = system: NCI-H1734
Procedure, shortened: as §1

UMC-11 = system: UMC-11
Procedure, shortened: as §1

SW 1573 = system: SW 1573
Procedure, shortened: as §1

HCC-44 = system: HCC-44
Procedure, shortened: as §1

LU99A = system: LU99A
Procedure, shortened: as §1

NCI-H441 = system: NCI-H441
Procedure, shortened: as §1

NCI-H1355 = system: NCI-H1355
Procedure, shortened: as §1

HCC-366 = system: HCC-366
Procedure, shortened: as §1

NCI-H2126 = system: NCI-H2126
Procedure, shortened: as §1

NCI-H358 = system: NCI-H358
Procedure, shortened: as §1

NCI-H727 = system: NCI-H727
Procedure, shortened: as §1

NCI-H520 = system: NCI-H520
Procedure, shortened: as §1

NCI-H2009 = system: NCI-H2009
Procedure, shortened: as §1

BEN = system: BEN
Procedure, shortened: as §1

NCI-H2347 = system: NCI-H2347
Procedure, shortened: as §1

NCI-H838 = system: NCI-H838
Procedure, shortened: as §1

HARA = system: HARA
Procedure, shortened: as §1

NCI-H2405 = system: NCI-H2405
Procedure, shortened: as §1

COCC1(CO)C(=O)C2CCN1CC2 (stereo not given) [PRIMA-1MET] + COc1cccc2cc(-c3nc([C@H]4CC[C@H](C(=O)O)CC4)n4ncnc(N)c34)[nH]c12 [OSI-027] (partner 0.5 µM)
relative viability (201T; first compound 0.2 µM): 0.82
relative viability (201T; first compound 0.6325 µM): 0.702
relative viability (201T; first compound 2 µM): 0.591
relative viability (201T; first compound 6.325 µM): 0.759
relative viability (201T; first compound 20 µM): 0.747
relative viability (NCI-H1437; first compound 0.2 µM): 1.03
relative viability (NCI-H1437; first compound 0.6325 µM): 0.945
relative viability (NCI-H1437; first compound 2 µM): 0.794
relative viability (NCI-H1437; first compound 6.325 µM): 0.893
relative viability (NCI-H1437; first compound 20 µM): 0.887
relative viability (PC-3 [JPC-3]; first compound 0.2 µM): 0.709
relative viability (PC-3 [JPC-3]; first compound 0.6325 µM): 0.747
relative viability (PC-3 [JPC-3]; first compound 2 µM): 0.816
relative viability (PC-3 [JPC-3]; first compound 6.325 µM): 0.77
relative viability (PC-3 [JPC-3]; first compound 20 µM): 0.792
relative viability (HCC-78; first compound 0.2 µM): 0.385
relative viability (HCC-78; first compound 0.6325 µM): 0.345
relative viability (HCC-78; first compound 6.325 µM): 0.339
relative viability (HCC-78; first compound 20 µM): 0.199
relative viability (NCI-H1734; first compound 0.2 µM): 0.709
relative viability (NCI-H1734; first compound 0.6325 µM): 0.508
relative viability (NCI-H1734; first compound 2 µM): 0.413
relative viability (NCI-H1734; first compound 6.325 µM): 0.532
relative viability (NCI-H1734; first compound 20 µM): 0.0554
relative viability (UMC-11; first compound 0.2 µM): 0.478
relative viability (UMC-11; first compound 0.6325 µM): 0.46
relative viability (UMC-11; first compound 2 µM): 0.432
relative viability (UMC-11; first compound 6.325 µM): 0.485
relative viability (UMC-11; first compound 20 µM): 0.444
relative viability (SW 1573; first compound 0.2 µM): 0.622
relative viability (SW 1573; first compound 0.6325 µM): 0.482
relative viability (SW 1573; first compound 2 µM): 0.597
relative viability (SW 1573; first compound 6.325 µM): 0.0316
relative viability (SW 1573; first compound 20 µM): 0.032
relative viability (HCC-44; first compound 0.2 µM): 0.584
relative viability (HCC-44; first compound 0.6325 µM): 0.472
relative viability (HCC-44; first compound 2 µM): 0.383
relative viability (HCC-44; first compound 6.325 µM): 0.397
relative viability (HCC-44; first compound 20 µM): 0.485
relative viability (LU99A; first compound 0.2 µM): 0.322
relative viability (LU99A; first compound 0.6325 µM): 0.29
relative viability (LU99A; first compound 2 µM): 0.292
relative viability (LU99A; first compound 6.325 µM): 0.268
relative viability (LU99A; first compound 20 µM): 0.0893
relative viability (NCI-H441; first compound 0.2 µM): 0.593
relative viability (NCI-H441; first compound 0.6325 µM): 0.629
relative viability (NCI-H441; first compound 2 µM): 0.663
relative viability (NCI-H441; first compound 6.325 µM): 0.611
relative viability (NCI-H441; first compound 20 µM): 0.313
relative viability (NCI-H1355; first compound 0.2 µM): 0.361
relative viability (NCI-H1355; first compound 0.6325 µM): 0.353
relative viability (NCI-H1355; first compound 2 µM): 0.316
relative viability (NCI-H1355; first compound 6.325 µM): 0.389
relative viability (NCI-H1355; first compound 20 µM): 0.406
relative viability (HCC-366; first compound 0.2 µM): 0.389
relative viability (HCC-366; first compound 0.6325 µM): 0.725
relative viability (HCC-366; first compound 2 µM): 0.303
relative viability (HCC-366; first compound 6.325 µM): 1.01
relative viability (HCC-366; first compound 20 µM): 0.927
relative viability (NCI-H2126; first compound 0.2 µM): 0.799
relative viability (NCI-H2126; first compound 0.6325 µM): 0.603
relative viability (NCI-H2126; first compound 2 µM): 0.56
relative viability (NCI-H2126; first compound 6.325 µM): 0.728
relative viability (NCI-H2126; first compound 20 µM): 0.675
relative viability (NCI-H358; first compound 0.2 µM): 0.734
relative viability (NCI-H358; first compound 2 µM): 0.653
relative viability (NCI-H358; first compound 6.325 µM): 0.954
relative viability (NCI-H358; first compound 20 µM): 0.365
relative viability (NCI-H727; first compound 0.2 µM): 0.357
relative viability (NCI-H727; first compound 0.6325 µM): 0.371
relative viability (NCI-H727; first compound 2 µM): 0.498
relative viability (NCI-H727; first compound 6.325 µM): 0.536
relative viability (NCI-H727; first compound 20 µM): 0.338
relative viability (NCI-H520; first compound 0.2 µM): 0.31
relative viability (NCI-H520; first compound 0.6325 µM): 0.213
relative viability (NCI-H520; first compound 2 µM): 0.169
relative viability (NCI-H520; first compound 6.325 µM): 0.197
relative viability (NCI-H520; first compound 20 µM): 0.143
relative viability (NCI-H2009; first compound 0.2 µM): 0.699
relative viability (NCI-H2009; first compound 0.6325 µM): 0.578
relative viability (NCI-H2009; first compound 2 µM): 0.643
relative viability (NCI-H2009; first compound 6.325 µM): 0.67
relative viability (NCI-H2009; first compound 20 µM): 0.0063
relative viability (BEN; first compound 0.2 µM): 0.283
relative viability (BEN; first compound 0.6325 µM): 0.304
relative viability (BEN; first compound 6.325 µM): 0.287
relative viability (BEN; first compound 20 µM): 0.336
relative viability (NCI-H2347; first compound 0.2 µM): 0.428
relative viability (NCI-H2347; first compound 0.6325 µM): 0.496
relative viability (NCI-H2347; first compound 2 µM): 0.247
relative viability (NCI-H2347; first compound 6.325 µM): 0.336
relative viability (NCI-H2347; first compound 20 µM): 0.311
relative viability (NCI-H838; first compound 0.2 µM): 0.428
relative viability (NCI-H838; first compound 0.6325 µM): 0.5
relative viability (NCI-H838; first compound 2 µM): 0.295
relative viability (NCI-H838; first compound 6.325 µM): 0.395
relative viability (NCI-H838; first compound 20 µM): 0.0935
relative viability (HARA; first compound 0.2 µM): 0.463
relative viability (HARA; first compound 0.6325 µM): 0.48
relative viability (HARA; first compound 6.325 µM): 0.59
relative viability (HARA; first compound 20 µM): 0.417
relative viability (NCI-H2405; first compound 0.2 µM): 0.501
relative viability (NCI-H2405; first compound 0.6325 µM): 0.653
relative viability (NCI-H2405; first compound 6.325 µM): 0.591
relative viability (NCI-H2405; first compound 20 µM): 0.499
